Reference: PubChem BioAssay (NCI)
Several values for one entry are separate records, joined by “and”; a condition that tells them apart may be missing. Identical values can stand only once.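 Briefly, cells in 96-well plates were exposed to five compound concentrations for 48 h, and endpoints were estimated by linear interpolation. GI50 marks 50% less growth. TGI: total growth inhibition.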

How the values were obtained:
Experiment in all cases: NCI tumour cell line growth inhibition, 48 h; in the data active = GI50 below about 0.43 µM; inactive = the rest
786-0 renal = test system: 786-0 renal
A498 renal = test system: A498 renal
A549 NSCLC = test system: A549 NSCLC
ACHN renal = test system: ACHN renal
CAKI-1 renal = test system: CAKI-1 renal
CCRF-CEM leukemia = test system: CCRF-CEM leukemia
COLO 205 colon = test system: COLO 205 colon
DLD-1 colon = test system: DLD-1 colon
DMS 114 small cell lung = test system: DMS 114 small cell lung
DMS 273 small cell lung = test system: DMS 273 small cell lung
EKVX NSCLC = test system: EKVX NSCLC
HCC-2998 colon = test system: HCC-2998 colon
HCT-116 colon = test system: HCT-116 colon
HOP-18 NSCLC = test system: HOP-18 NSCLC
HOP-62 NSCLC = test system: HOP-62 NSCLC
HOP-92 NSCLC = test system: HOP-92 NSCLC
HT29 colon = test system: HT29 colon
IGROV1 ovarian = test system: IGROV1 ovarian
K-562 leukemia = test system: K-562 leukemia
KM12 colon = test system: KM12 colon
KM20L2 colon = test system: KM20L2 colon
LOX IMVI melanoma = test system: LOX IMVI melanoma
LXFL 529 NSCLC = test system: LXFL 529 NSCLC
M14 melanoma = test system: M14 melanoma
M19-MEL melanoma = test system: M19-MEL melanoma
MALME-3M melanoma = test system: MALME-3M melanoma
MOLT-4 leukemia = test system: MOLT-4 leukemia
NCI-H226 lung = test system: NCI-H226 lung
NCI-H23 lung = test system: NCI-H23 lung
NCI-H460 lung = test system: NCI-H460 lung
NCI-H522 lung = test system: NCI-H522 lung
OVCAR-3 ovarian = test system: OVCAR-3 ovarian
OVCAR-4 ovarian = test system: OVCAR-4 ovarian
OVCAR-5 ovarian = test system: OVCAR-5 ovarian
OVCAR-8 ovarian = test system: OVCAR-8 ovarian
RPMI-8226 leukemia = test system: RPMI-8226 leukemia
RXF-631 renal = test system: RXF-631 renal
SF-268 CNS = test system: SF-268 CNS
SF-295 CNS = test system: SF-295 CNS
SF-539 CNS = test system: SF-539 CNS
SK-MEL-2 melanoma = test system: SK-MEL-2 melanoma
SK-MEL-28 melanoma = test system: SK-MEL-28 melanoma
SK-MEL-5 melanoma = test system: SK-MEL-5 melanoma
SK-OV-3 ovarian = test system: SK-OV-3 ovarian
SN12C renal = test system: SN12C renal
SNB-19 CNS = test system: SNB-19 CNS
SNB-75 CNS = test system: SNB-75 CNS
SNB-78 CNS = test system: SNB-78 CNS
SR leukemia = test system: SR leukemia
SW-620 colon = test system: SW-620 colon
TK-10 renal = test system: TK-10 renal
U251 CNS = test system: U251 CNS
UACC-257 melanoma = test system: UACC-257 melanoma
UACC-62 melanoma = test system: UACC-62 melanoma
UO-31 renal = test system: UO-31 renal
XF 498 CNS = test system: XF 498 CNS
BT-549 breast = test system: BT-549 breast
DU-145 prostate = test system: DU-145 prostate
HCT-15 colon = test system: HCT-15 colon
HL-60(TB) leukemia = test system: HL-60(TB) leukemia
HS 578T breast = test system: HS 578T breast
MCF7 breast = test system: MCF7 breast
MDA-MB-231 breast = test system: MDA-MB-231 breast
MDA-MB-435 = test system: MDA-MB-435
MDA-N = test system: MDA-N
NCI/ADR-RES ovarian = test system: NCI/ADR-RES ovarian
P388 leukemia = test system: P388 leukemia
P388/ADR leukemia = test system: P388/ADR leukemia
PC-3 prostate = test system: PC-3 prostate
RXF 393 renal = test system: RXF 393 renal
SN12K1 renal = test system: SN12K1 renal
T-47D breast = test system: T-47D breast

C#CCOCn1cnc2ncnc(Cl)c21
> 100 µM: TGI (786-0 renal) | TGI (A498 renal) | TGI (A549 NSCLC) | TGI (ACHN renal) | TGI (CAKI-1 renal) | TGI (CCRF-CEM leukemia) | TGI (COLO 205 colon) | TGI (DLD-1 colon) | TGI (DMS 114 small cell lung) | TGI (DMS 273 small cell lung) | TGI (EKVX NSCLC) | TGI (HCC-2998 colon) | TGI (HCT-116 colon) | TGI (HOP-18 NSCLC) | TGI (HOP-62 NSCLC) | TGI (HOP-92 NSCLC) | TGI (HT29 colon) | TGI (IGROV1 ovarian) | TGI (K-562 leukemia) | TGI (KM12 colon) | TGI (KM20L2 colon) | TGI (LOX IMVI melanoma) | TGI (LXFL 529 NSCLC) | TGI (M14 melanoma) | TGI (M19-MEL melanoma) | TGI (MALME-3M melanoma) | TGI (MOLT-4 leukemia) | TGI (NCI-H226 lung) | TGI (NCI-H23 lung) | TGI (NCI-H460 lung) | TGI (NCI-H522 lung) | TGI (OVCAR-3 ovarian) | TGI (OVCAR-4 ovarian) | TGI (OVCAR-5 ovarian) | TGI (OVCAR-8 ovarian) | TGI (RPMI-8226 leukemia) | TGI (RXF-631 renal) | TGI (SF-268 CNS) | TGI (SF-295 CNS) | TGI (SF-539 CNS) | TGI (SK-MEL-2 melanoma) | TGI (SK-MEL-28 melanoma) | TGI (SK-MEL-5 melanoma) | TGI (SK-OV-3 ovarian) | TGI (SN12C renal) | TGI (SNB-19 CNS) | TGI (SNB-75 CNS) | TGI (SNB-78 CNS) | TGI (SR leukemia) | TGI (SW-620 colon) | TGI (TK-10 renal) | TGI (U251 CNS) | TGI (UACC-257 melanoma) | TGI (UACC-62 melanoma) | TGI (UO-31 renal) | TGI (XF 498 CNS)

Cc1cc(=O)c2c(O)c3c(O)cc(O)c4c5c(O)cc(O)c6c(O)c7c(=O)cc(C)c8c1c2c(c34)c(c65)c78
> 100 µM and 41.9 µM: TGI (SK-OV-3 ovarian)
88.8 µM: TGI (RXF 393 renal)
47.5 µM: TGI (DLD-1 colon)
> 100 µM and 94 µM: TGI (SK-MEL-2 melanoma)
> 100 µM and 60.2 µM: TGI (NCI-H23 lung)
> 100 µM and 75.6 µM: TGI (A498 renal)
> 100 µM and 36.3 µM: TGI (MCF7 breast)
> 100 µM: TGI (786-0 renal) | TGI (A549 NSCLC) | TGI (ACHN renal) | TGI (BT-549 breast) | TGI (CAKI-1 renal) | TGI (CCRF-CEM leukemia) | TGI (COLO 205 colon) | TGI (DMS 273 small cell lung) | TGI (DU-145 prostate) | TGI (EKVX NSCLC) | TGI (HCC-2998 colon) | TGI (HOP-18 NSCLC) | TGI (HS 578T breast) | TGI (IGROV1 ovarian) | TGI (K-562 leukemia) | TGI (KM12 colon) | TGI (LOX IMVI melanoma) | TGI (M14 melanoma) | TGI (MALME-3M melanoma) | TGI (MDA-MB-231 breast) | TGI (MDA-MB-435) | TGI (MDA-N) | TGI (NCI-H460 lung) | TGI (NCI/ADR-RES ovarian) | TGI (OVCAR-3 ovarian) | TGI (OVCAR-4 ovarian) | TGI (OVCAR-8 ovarian) | TGI (P388/ADR leukemia) | TGI (PC-3 prostate) | TGI (RPMI-8226 leukemia) | TGI (SF-268 CNS) | TGI (SF-539 CNS) | TGI (SK-MEL-28 melanoma) | TGI (SK-MEL-5 melanoma) | TGI (SN12C renal) | TGI (SN12K1 renal) | TGI (SNB-19 CNS) | TGI (SNB-75 CNS) | TGI (SR leukemia) | TGI (SW-620 colon) | TGI (T-47D breast) | TGI (TK-10 renal) | TGI (U251 CNS) | TGI (UACC-257 melanoma) | TGI (UACC-62 melanoma) | TGI (XF 498 CNS)
72.8 µM: TGI (P388 leukemia)
> 77.3 µM: TGI (SNB-78 CNS)
> 100 µM and 47.4 µM: TGI (HOP-92 NSCLC)
> 100 µM and 64.2 µM: TGI (HCT-116 colon)
> 73 µM: TGI (HOP-62 NSCLC)
> 100 µM and 24.2 µM: TGI (MOLT-4 leukemia)
> 100 µM and 44.2 µM: TGI (NCI-H522 lung)
> 100 µM and 65.9 µM: TGI (UO-31 renal)
> 63.6 µM: TGI (M19-MEL melanoma)
> 100 µM and 45.3 µM: TGI (OVCAR-5 ovarian)
inactive: GI50 (A498 renal) 64.9 µM and 28.9 µM | GI50 (CCRF-CEM leukemia) > 100 µM and 22.2 µM | GI50 (COLO 205 colon) > 100 µM | GI50 (HCC-2998 colon) > 100 µM and 28.3 µM | GI50 (HCT-116 colon) > 100 µM and 21.6 µM | GI50 (HCT-15 colon) > 100 µM and 20.1 µM | GI50 (HL-60(TB) leukemia) 11.7 µM | GI50 (HOP-92 NSCLC) 36.7 µM and 15.1 µM | GI50 (HT29 colon) > 100 µM and 19.2 µM | GI50 (IGROV1 ovarian) > 100 µM | GI50 (LOX IMVI melanoma) > 100 µM and 35.4 µM | GI50 (MCF7 breast) > 100 µM and 16.6 µM | GI50 (NCI-H226 lung) > 100 µM and 16.3 µM | GI50 (NCI-H23 lung) > 100 µM and 23 µM | GI50 (NCI-H460 lung) 33.2 µM | GI50 (NCI-H522 lung) > 100 µM and 19.4 µM | GI50 (NCI/ADR-RES ovarian) > 100 µM | GI50 (OVCAR-5 ovarian) > 100 µM and 24.7 µM | GI50 (RPMI-8226 leukemia) > 100 µM and 22.3 µM | GI50 (SF-295 CNS) > 100 µM and 16.6 µM | GI50 (SF-539 CNS) > 100 µM | GI50 (SK-MEL-2 melanoma) > 100 µM and 37.3 µM | GI50 (SK-OV-3 ovarian) > 100 µM and 21.6 µM | GI50 (SNB-75 CNS) > 100 µM and 32.3 µM | GI50 (U251 CNS) > 100 µM and 37.3 µM | GI50 (UACC-257 melanoma) > 100 µM | GI50 (UACC-62 melanoma) > 100 µM | GI50 (UO-31 renal) > 100 µM and 25.5 µM
> 100 µM and 30.7 µM: TGI (HL-60(TB) leukemia)
> 100 µM and 52 µM: TGI (HCT-15 colon)
49.2 µM: TGI (KM20L2 colon)
> 100 µM and 37.6 µM: TGI (SF-295 CNS)
> 100 µM and 43.2 µM: TGI (HT29 colon)
> 100 µM and 44.3 µM: TGI (NCI-H226 lung)
